Test results taken from patent US20230099441A1, “HETEROCYCLIC COMPOUND, APPLICATION THEREOF, AND COMPOSITION CONTAINING SAME” (GenEros Biopharma Ltd., priority 2019, published 2023).

Experiment: Body weight of animals in the mouse collagen-induced arthritis model
Type: in vivo
Details: oral, X8 1 mg/kg once a day; for body weight of animals, Mean/g: mean of group, Methotrexate 0.25 mg/kg once a week, Tofacitinib 5 mg/kg once a day
Description: Sixty male DBA/1J mice (9-10 weeks old, H-2q haplotype) were acclimatized in a standard animal room for one week and then randomly divided into 5 groups. Except for the healthy control group, the rest were inoculated with collagen antigen injection, and then received oral treatment with different compounds. The brief procedure was to mix bovine type II collagen (purchased from Chondrex, 20021) with an equal volume of Freund's complete adjuvant (purchased from Sigma, F5881), the concentration was 4 mg/ml, and it was treated with a homogenizer at a speed of 20,000 revolutions/min for 5-10 minutes. A needle was inserted between the left side of the dorsal caudal artery and the lateral vein of the mouse, and 50 microliters of modeling agent was injected subcutaneously. 21 days after the first injection, another injection was injected between the right side of the dorsal tail artery and the lateral vein of the mouse. After the first injection, oral administration was started. The drug was formulated with […] PEG300, and it was prepared for immediate use. […] The total score was between 0-12 points, and the swelling of the foot after vaccination was not calculated.

For `O=C(Cc1ccc(C(F)(F)F)cc1)N1CCC(n2c(=O)[nH]c3ccccc32)CC1` [Example X8, 1-(1-(2-(4-(trifluoromethyl)phenyl)acetyl)piperidin-4-yl)-1H-benzo[d]imidazole-2(3H)-one], the “body weight of animals, Mean/g” value (day 0) was 21.50 g, the “body weight of animals, Mean/g” value (day 4) was 21.52 g and the “body weight of animals, Mean/g” value (day 7) was 21.93 g. The “body weight of animals, Mean/g” value (day 11) was 21.90 g, the “body weight of animals, Mean/g” value (day 14) was 21.92 g and the “body weight of animals, Mean/g” value (day 18) was 22.23 g. For the same compound, the “body weight of animals, Mean/g” value (day 20) was 22.50 g, the “body weight of animals, Mean/g” value (day 25) was 22.07 g and the “body weight of animals, Mean/g” value (day 28) was 21.82 g. For the same compound, the “body weight of animals, Mean/g” value (day 31) was 21.71 g, the “body weight of animals, Mean/g” value (day 33) was 21.82 g and the “body weight of animals, Mean/g” value (day 35) was 21.55 g. The “body weight of animals, Mean/g” value (day 38) was 21.71 g, the “body weight of animals, Mean/g” value (day 40) was 21.64 g and the “body weight of animals, Mean/g” value (day 42) was 21.61 g. The “body weight of animals, Mean/g” value (day 45) was 21.98 g and the “effect on body weight of animals (in words)” value (whole experiment, days 0-45, methotrexate 0.25 mg/kg once a week, tofacitinib 5 mg/kg once a day) was “no significant effect on body weight of animals, and no drastic changes were seen”.
